Target: T1, CFTR channels (Homo sapiens, UniProt P13569)
T1 construct: 1835; Cap1; TEV; Yes; XBG; 53; expressed in transfected cells; host or cells: FRT (Fischer rat thyroid) cells in air-liquid interface culture, transfected with unformulated hCFTR mRNA
Test: Transepithelial conductance (Gt) in Air-Liquid Interface culture of transfected FRT cells
Format: cell-based
Settings: FRT cells transfected with constructs 2099.1 and 1835.1 (FIG. 12); sequential Forskolin, VX770, Inh-172
Experimental: Further studies were conducted to assess the activity of hCFTR proteins expressed by selected mRNA constructs and whether these can properly open and close to allow proper ion transport. In these studies, an Air-Liquid Interface (ALI) cell culture model of FRT cells was used to transfect an unformulated subset of codon-optimized hCFTR mRNAs at different doses ranging from 0.5 μg-2 μg of mRNA (the 2 μg dose is not shown) into the FRT cells. ALI is a method of cell culture by which polarized cells are generated with their basal surfaces in contact with media, and the top of the cellular layer is exposed to the air. This model helps to mimic the cellular structure of in vivo airways.
At 24 hours post-transfection, transepithelial conductance (Gt) of the cells over time was measured as an indicator of CFTR activity. Initially, Gt was measured with the transfected or control cells unperturbed. Then, a sequential process of CFTR activation (channel opening), enhancement (gating promotion) and closing of the CFTR channels was performed. The hCFTR constructs used in this study were 1835.1 (SEQ ID NO: 53), 2093.1 (SEQ ID NO: 66), 2095.1 (SEQ ID NO: 68), 2096.1 (SEQ ID NO: 69), and 2099.1 (SEQ ID NO: 72). In addition, controls were performed using a reference sequence of construct 764.1 (SEQ ID NO: 47) and untransfected cells. […]

T1 sequence (P13569 whole entry): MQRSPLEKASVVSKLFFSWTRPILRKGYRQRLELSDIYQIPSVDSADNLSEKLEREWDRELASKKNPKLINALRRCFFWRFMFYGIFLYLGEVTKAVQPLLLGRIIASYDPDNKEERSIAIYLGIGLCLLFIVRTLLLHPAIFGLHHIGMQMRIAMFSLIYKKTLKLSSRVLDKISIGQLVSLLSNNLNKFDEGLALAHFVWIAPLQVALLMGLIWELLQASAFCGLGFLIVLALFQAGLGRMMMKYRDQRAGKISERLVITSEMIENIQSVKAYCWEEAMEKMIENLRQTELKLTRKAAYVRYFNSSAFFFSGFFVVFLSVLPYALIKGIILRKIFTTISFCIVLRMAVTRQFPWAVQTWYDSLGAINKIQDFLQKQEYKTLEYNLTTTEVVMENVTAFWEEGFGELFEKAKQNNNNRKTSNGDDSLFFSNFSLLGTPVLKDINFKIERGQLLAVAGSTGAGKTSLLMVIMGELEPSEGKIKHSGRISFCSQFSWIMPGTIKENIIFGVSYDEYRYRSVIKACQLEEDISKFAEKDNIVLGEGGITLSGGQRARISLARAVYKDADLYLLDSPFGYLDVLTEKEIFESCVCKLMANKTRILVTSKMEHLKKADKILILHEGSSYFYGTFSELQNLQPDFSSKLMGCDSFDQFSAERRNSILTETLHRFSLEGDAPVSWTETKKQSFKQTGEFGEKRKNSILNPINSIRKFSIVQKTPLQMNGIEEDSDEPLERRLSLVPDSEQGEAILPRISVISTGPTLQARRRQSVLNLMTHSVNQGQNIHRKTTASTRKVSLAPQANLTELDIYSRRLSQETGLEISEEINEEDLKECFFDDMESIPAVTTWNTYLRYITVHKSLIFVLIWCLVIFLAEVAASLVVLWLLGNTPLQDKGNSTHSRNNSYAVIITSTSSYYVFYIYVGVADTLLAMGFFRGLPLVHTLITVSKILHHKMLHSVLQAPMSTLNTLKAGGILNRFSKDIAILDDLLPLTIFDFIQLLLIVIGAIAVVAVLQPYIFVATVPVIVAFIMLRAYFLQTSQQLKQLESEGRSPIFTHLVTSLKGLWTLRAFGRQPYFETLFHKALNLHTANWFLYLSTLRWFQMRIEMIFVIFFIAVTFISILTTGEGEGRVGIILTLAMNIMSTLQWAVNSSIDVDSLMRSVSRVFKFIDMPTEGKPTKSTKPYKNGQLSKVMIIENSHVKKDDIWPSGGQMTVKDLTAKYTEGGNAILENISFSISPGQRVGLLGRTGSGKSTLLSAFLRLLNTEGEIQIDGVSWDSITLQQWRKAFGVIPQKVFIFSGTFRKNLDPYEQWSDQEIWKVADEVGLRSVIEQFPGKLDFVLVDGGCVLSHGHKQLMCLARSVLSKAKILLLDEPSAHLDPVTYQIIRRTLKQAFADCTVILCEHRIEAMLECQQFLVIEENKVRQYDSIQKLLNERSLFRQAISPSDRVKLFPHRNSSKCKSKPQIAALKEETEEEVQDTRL

Change in Gt on introduction of CFTR modulator	SMILES
decline in Gt	O=C(O)c1ccc(C=C2SC(=S)N(c3cccc(C(F)(F)F)c3)C2=O)cc1 [Inh-172, reference compound]
second increase in Gt	CC(C)(C)c1cc(C(C)(C)C)c(NC(=O)c2c[nH]c3ccccc3c2=O)cc1O [VX770, reference compound]
